Here are results for 25 compounds from ChEMBL document CHEMBL1201862, “PubChem BioAssay data set” (2004).

In experiment [1] the target is Glyceraldehyde-3-phosphate dehydrogenase (Homo sapiens, UniProt P04406).
Experiment [2] deals with T1, Leucine aminopeptidase (Plasmodium falciparum 3D7, UniProt Q8IL11).
T1 sequence (Q8IL11 whole entry): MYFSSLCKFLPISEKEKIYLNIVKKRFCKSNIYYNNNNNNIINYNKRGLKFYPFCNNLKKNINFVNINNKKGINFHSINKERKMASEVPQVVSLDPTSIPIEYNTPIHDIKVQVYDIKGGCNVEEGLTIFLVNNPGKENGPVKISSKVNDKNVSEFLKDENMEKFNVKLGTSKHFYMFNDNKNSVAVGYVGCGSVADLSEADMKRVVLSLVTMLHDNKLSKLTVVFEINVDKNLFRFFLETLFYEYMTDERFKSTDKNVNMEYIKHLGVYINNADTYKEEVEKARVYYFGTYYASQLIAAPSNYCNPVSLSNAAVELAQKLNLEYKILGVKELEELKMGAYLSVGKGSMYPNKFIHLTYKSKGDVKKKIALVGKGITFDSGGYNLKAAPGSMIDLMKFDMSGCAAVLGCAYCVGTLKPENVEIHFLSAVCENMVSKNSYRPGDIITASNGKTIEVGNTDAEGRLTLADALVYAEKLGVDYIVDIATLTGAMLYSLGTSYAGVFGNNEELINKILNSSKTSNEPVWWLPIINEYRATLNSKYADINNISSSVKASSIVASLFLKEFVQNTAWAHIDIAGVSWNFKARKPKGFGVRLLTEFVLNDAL
As to the kind of experiment: P. falciparum M17LAP inhibitors, primary screen, biochemical, fluorogenic H-Leu-NHMec substrate, 1536-well (AID 1619). It counts as functional.

The nature of experiment [3]: HepG2 cell cytotoxicity, dose response, cytotoxicity control, cherry-picked samples (AID 1159577). It is filed as functional, cell-based.
Experiment [4] is described as follows: P. falciparum Dd2 growth inhibitors, dose response, SYBR Green, cherry-picked samples (AID 1159567). It counts as functional, cell-based.
Experiment [5] concerns the target T2, Aminopeptidase N (Plasmodium falciparum FcB1/Columbia, UniProt O96935).
T2 sequence (O96935 whole entry): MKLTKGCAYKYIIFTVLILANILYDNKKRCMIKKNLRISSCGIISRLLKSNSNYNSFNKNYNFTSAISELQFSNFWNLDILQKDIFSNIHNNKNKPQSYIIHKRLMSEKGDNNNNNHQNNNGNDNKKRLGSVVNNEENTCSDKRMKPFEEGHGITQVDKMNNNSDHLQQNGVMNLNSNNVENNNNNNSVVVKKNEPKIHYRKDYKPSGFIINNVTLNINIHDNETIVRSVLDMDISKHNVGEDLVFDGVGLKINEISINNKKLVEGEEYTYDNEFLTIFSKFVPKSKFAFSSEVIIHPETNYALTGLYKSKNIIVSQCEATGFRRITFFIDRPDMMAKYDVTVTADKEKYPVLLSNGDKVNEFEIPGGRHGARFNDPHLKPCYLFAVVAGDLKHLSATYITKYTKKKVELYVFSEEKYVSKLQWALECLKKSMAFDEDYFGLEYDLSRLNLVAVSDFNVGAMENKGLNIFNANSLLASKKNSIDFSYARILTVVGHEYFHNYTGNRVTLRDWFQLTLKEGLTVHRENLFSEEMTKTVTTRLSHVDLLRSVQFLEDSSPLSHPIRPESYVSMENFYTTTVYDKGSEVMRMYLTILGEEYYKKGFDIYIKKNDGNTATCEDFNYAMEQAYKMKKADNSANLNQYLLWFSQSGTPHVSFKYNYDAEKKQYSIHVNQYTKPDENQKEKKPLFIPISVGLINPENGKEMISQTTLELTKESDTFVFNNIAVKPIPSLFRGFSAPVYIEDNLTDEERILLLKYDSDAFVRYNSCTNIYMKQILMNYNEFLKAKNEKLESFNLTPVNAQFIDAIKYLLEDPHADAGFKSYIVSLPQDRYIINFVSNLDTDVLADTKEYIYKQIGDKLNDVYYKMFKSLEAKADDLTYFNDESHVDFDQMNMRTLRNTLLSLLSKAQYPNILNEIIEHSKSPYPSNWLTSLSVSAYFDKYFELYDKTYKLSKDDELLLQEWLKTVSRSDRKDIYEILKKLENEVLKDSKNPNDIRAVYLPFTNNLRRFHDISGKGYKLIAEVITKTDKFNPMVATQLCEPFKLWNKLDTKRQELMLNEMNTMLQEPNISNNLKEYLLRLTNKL
Description: P. falciparum M1AAP inhibitors, biochemical, fluorogenic H-Leu-NHMec substrate, 1536-well (AID 1445). Further details: species or system Plasmodium falciparum 3D7, 3D7.

For experiment [6], the target named is Cytochrome P450 3A4 (Homo sapiens, UniProt P08684). The note with it: Potency.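 Further: confirmatory qHTS run detecting inhibitors and substrates of CYP3A4.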
Experiment [7] in a line: HEK293T cytotoxicity, dose response, cytotoxicity control for miR-122 modulator project, cell-based, activator set, cherry-pick (AID 720690).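 Further: HEK293T human cells scored for general mammalian cytotoxicity.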 It counts as functional.
Experiment [8] is described as follows: miR-122 activators in hepatoma reporter cells, dose response, cell-based, Huh7 psiCHECK-miR122, Renilla luciferase, cherry-picked (AID 651956).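 Further: huh7 hepatoma cells stably carrying a psiCHECK-2 miR-122 sensor plasmid; renilla luciferase signal reporting endogenous miR-122 activity after 48 h compound exposure.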 It is filed as functional.
Experiment [9] in a line: HEK293T cytotoxicity, dose response, cytotoxicity control for miR-122 modulator project, cell-based, inhibitor set, cherry-pick, set 2 (AID 720697). It is filed as functional.
A short description of experiment [10]: MC4R antagonists, dose response, counter-screen for LGR2 antagonist project, cell-based, plate reader, cherry pick (AID 743444).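 Further: transfected HEK 293 cells stimulated with alpha-MSH peptide; potency of inhibitors of the alpha-MSH evoked signal.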 It counts as functional.
The nature of experiment [11]: HepG2 cell cytotoxicity, dose response, cytotoxicity control, plate reader, cherry-pick, antagonist series (AID 743416). It counts as functional, cell-based.
Experiment [12] in a line: LGR2 antagonists, dose response, cell-based, HEK293, CRE-luciferase reporter, cherry pick, set 2 (AID 743343).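 Further: transfected cells were stimulated with diluted bursicon conditioned medium after compound addition.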 It counts as functional.
For experiment [13], the target named is T3, Caspase-6 (Homo sapiens, UniProt P55212).
T3 sequence (P55212 whole entry): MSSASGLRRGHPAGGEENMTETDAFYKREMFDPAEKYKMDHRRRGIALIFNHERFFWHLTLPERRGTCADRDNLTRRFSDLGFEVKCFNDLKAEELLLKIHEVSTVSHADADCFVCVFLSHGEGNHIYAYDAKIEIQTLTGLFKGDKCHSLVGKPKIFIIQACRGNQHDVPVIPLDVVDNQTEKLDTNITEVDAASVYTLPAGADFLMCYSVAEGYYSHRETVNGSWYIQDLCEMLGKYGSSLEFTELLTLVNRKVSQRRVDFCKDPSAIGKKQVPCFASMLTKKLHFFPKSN
Description: human caspase-6 inhibitors, dose response, biochemical, VEID-R110 fluorescence, cherry-pick (AID 720632).

The nature of experiment [14]: Shn3 3'UTR reporter inhibitors, dose response, cell-based, Clone20 osteoblasts, firefly luciferase, cherry-picked (AID 624132).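 Further: firefly luciferase luminescence from reporter carrying the Shn3 3'UTR in osteoblasts.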 It is filed as functional.
Experiment [15] can be described thus: HepG2 cell cytotoxicity, dose response, cytotoxicity control for Shn3 inhibitor project, CellTiter-Glo, cherry-picked (AID 624134). It is filed as functional, cell-based.
Experiment [16] relates to INS1. As to the kind of experiment: beta cell apoptosis inhibitors, cytokine rescue, dose response, luminescence, retest (AID 449756).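 Further: cell death triggered by IL-1 beta plus TNF-alpha plus IFN-gamma mixture; protective hits raise ATP signal compared with cytokine alone wells.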 Conditions: Rattus norvegicus. It is filed as functional, cell-based.
Experiment [17] in a line: control 3'UTR Renilla luciferase suppression, dose response, counter-screen for Shn3 inhibitor project, cell-based, Clone20-Shn3RL, cherry-picked (AID 624133). It is filed as functional.

The source made the active and inactive calls.

Sequence of Cytochrome P450 3A4 (P08684 whole entry): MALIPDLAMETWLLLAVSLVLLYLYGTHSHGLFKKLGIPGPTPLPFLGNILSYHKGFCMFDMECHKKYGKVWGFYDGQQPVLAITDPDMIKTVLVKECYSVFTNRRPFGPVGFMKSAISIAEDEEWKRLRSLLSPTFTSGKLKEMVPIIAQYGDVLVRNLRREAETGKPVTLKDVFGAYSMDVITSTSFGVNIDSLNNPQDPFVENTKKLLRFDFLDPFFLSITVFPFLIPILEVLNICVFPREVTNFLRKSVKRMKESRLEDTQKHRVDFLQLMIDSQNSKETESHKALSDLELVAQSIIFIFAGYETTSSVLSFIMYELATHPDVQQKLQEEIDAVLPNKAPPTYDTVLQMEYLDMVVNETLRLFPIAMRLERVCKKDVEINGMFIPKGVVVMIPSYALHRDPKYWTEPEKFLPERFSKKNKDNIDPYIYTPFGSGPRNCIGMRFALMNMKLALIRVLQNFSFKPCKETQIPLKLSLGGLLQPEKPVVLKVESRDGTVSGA
Sequence of Glyceraldehyde-3-phosphate dehydrogenase (P04406 whole entry): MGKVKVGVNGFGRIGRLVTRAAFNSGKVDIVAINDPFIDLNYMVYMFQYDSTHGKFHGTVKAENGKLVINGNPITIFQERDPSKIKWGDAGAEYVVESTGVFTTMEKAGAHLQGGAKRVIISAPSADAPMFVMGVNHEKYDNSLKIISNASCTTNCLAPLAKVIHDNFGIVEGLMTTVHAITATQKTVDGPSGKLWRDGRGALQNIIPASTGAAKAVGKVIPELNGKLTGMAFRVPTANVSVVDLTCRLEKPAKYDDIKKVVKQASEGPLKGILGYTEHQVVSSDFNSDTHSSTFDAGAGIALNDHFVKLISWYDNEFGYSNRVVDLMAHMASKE

As for `C[C@@H]1CN(C2=C(Cl)C(=O)N(c3ccnc(Cl)c3)C2=O)CCN1`, the IC50 in [1] is > 50 µM (inconclusive).
`CCOC(=O)c1oc2c(O)c(O)ccc2c(=O)c1-c1nncn1-c1ccccc1`: in experiment [2], the IC50 is 6.58 µM (active).
As to `C[C@H]1CN([C@@H](C)CO)S(=O)(=O)c2ccc(C3=CCCCC3)cc2O[C@@H]1CN(C)C(=O)Cc1ccncc1`, the results for the AC50 in experiment [3] and in experiment [4] were > 39 µM (inactive) and 3.13 µM (active), respectively.
Regarding `Cc1noc(NS(=O)(=O)c2ccc(NC(=O)CSc3n[nH]c4c5ccccc5nc-4n3)cc2)c1C`, the IC50 was 21.9 µM (active) in experiment [5] and 2.57 µM (active) in [2].
Take `O=C(O)CS(=O)(=O)c1cccc(C(=O)O)c1`: in [1], the IC50 was > 100 µM (not active).
Regarding `Clc1ccc(C2[C@H]3CN(CC4CCCCC4)[C@H](c4ccccc4)C34CC2(c2ccccc2)C4)cn1` (stereo partly specified), in [6], the concentration at half-maximal activity (AC50) is 15.8 µM (inconclusive).
For `C[C@@H]1CCCCO[C@@H](CN(C)Cc2ccc3c(c2)OCO3)[C@H](C)CN([C@H](C)CO)C(=O)c2cc(NC(=O)Nc3ccc(C(F)(F)F)cc3)ccc2O1`, the AC50 was 9.09 µM (active) in [7], 5.55 µM (active) in [8] and 8.08 µM (active) in experiment [9].
As to `CC(=O)N1CCCC(c2cc(C(=O)Nc3ccccc3)no2)C1` (stereo unspecified), the results for the AC50 in experiment [10], in experiment [11] and in experiment [12] were 1.98 µM (active), > 52 µM (inactive) and 2.13 µM (active), respectively.
Take `COc1ccc(NC(=O)N(C)C[C@H]2Oc3cc(C#CCC(C)C)ccc3S(=O)(=O)N([C@@H](C)CO)C[C@H]2C)cc1`: the AC50 in experiment [7] was 27 µM (active); in experiment [9] it was 6.46 µM (active).
With `CC(C)Cn1c(N)c(C(=O)COC(=O)c2cc(C(F)(F)F)nc3c(C(F)(F)F)cccc23)c(=O)n(C)c1=O`, the half-maximal activity concentration (AC50) in experiment [6] was 3.16 µM (inconclusive).
Regarding `Cc1ccc(N2C(=O)C(Cl)=C(N3CCN(c4ncccn4)CC3)C2=O)cc1`, in experiment [1], the IC50 was > 50 µM (inconclusive).
Take `Cc1ccccc1Nc1nc(N)nc(COC(=O)c2ccc([N+](=O)[O-])o2)n1`: the AC50 in experiment [13] was 47 µM (active).
`CC(=O)N1[C@H](C)C=C[C@]1(Cc1ccccc1)C(=O)NCCc1c[nH]c2ccccc12`: the AC50 in experiment [6] was 1.58 µM (inconclusive).
Take `CN1C(=O)c2cc(NC(=O)Nc3ccccc3F)ccc2OC[C@@H]2O[C@@H](CC(=O)NCc3ccc(-c4ccccc4)cc3)CC[C@@H]21`: the AC50 in [7] was 47.9 µM (active).
On to `CSc1nnc(-c2cc(Br)ccc2/N=C/c2c(C)nn(-c3ccccc3)c2O)c(O)n1`, for which, in [2], the IC50 was 24.8 µM (active).
Same read-out and setting: the value for `N=C(CSc1nc(-c2ccccc2)c(-c2ccccc2)o1)NO` was 7.64 µM (active).
With `OC(CN1CCNCC1)Cn1c2ccc(Br)cc2c2cc(Br)ccc21` (stereo unspecified), the half-maximal activity concentration (AC50) in experiment [6] is 31.6 µM (inconclusive).
For `C[C@@H]1CN([C@H](C)CO)S(=O)(=O)c2ccc(C#Cc3ccccc3F)cc2O[C@@H]1CN(C)C(=O)Cc1ccncc1`, the results for the AC50 in [7] and in experiment [8] were 32.4 µM (active) and 5.11 µM (active), respectively.
Take `O=C(O)c1cc(S(=O)(=O)Nc2ccc3c[nH]nc3c2)ccc1Br`: the AC50 in [13] is 14.5 µM (active).
Turning to `COc1cc(CC(=O)Nc2nc(-c3ccc(F)c(F)c3)cs2)cc(OC)c1OC`, the AC50 in experiment [14] is 3.92 µM (active); in experiment [15], 6.77 µM (active); in experiment [16], 6.89 µM (active); in experiment [17] it was 19.2 µM (active).
As for `C=C1C([C@@]2(C)C(OC(C)=O)CC(=O)O[C@@](C)(COC(C)=O)C2CC(=O)OC)C(OC=O)C(OC(=O)C(O)C(C)CC)[C@]2(C)C(c3ccoc3)CC(=O)C12O` (stereo partly specified), the AC50 in experiment [6] is 10 µM (inconclusive).
For the compound `Cc1cc(NS(=O)(=O)c2ccc(NC(=O)COc3ccccc3[N+](=O)[O-])cc2)no1`, the AC50 in [13] is 10.5 µM (active).
`CC(C)c1nc(N(C)S(C)(=O)=O)nc(-c2ccc(F)cc2)c1/C=C/C(O)CC(O)CC(=O)O` (stereo unspecified): the AC50 in experiment [6] was 39.8 µM (inconclusive).
Take `COc1ccc(NC(=O)N2CCCCN3[C@@H](CO)[C@H](c4ccc(C#CCC(C)C)cc4)[C@@H]3C2)cc1`: the AC50 in [3] is 8.52 µM (active); in experiment [7], 11.6 µM (active); in experiment [8] it was 3.18 µM (active); in [9] it was 11.7 µM (active); in [4], 0.491 µM (active).
On to `COc1ccc(C#Cc2ccc([C@H]3[C@H](CO)N4CCCCN(Cc5ccccc5F)C[C@@H]34)cc2)cc1`, for which the AC50 in experiment [3] is 10.9 µM (active); in [4] it was 0.781 µM (active).
